# Laboratory results reported in patent US8802664B2 (Bioproject, priority 2010, dated 2014).
# Counter-ions that a name gives are not always drawn.
row,SMILES,melting point
1,"CN1CCC(OC(c2cccc(OCc3ccccn3)c2)c2nc3ccccc3s2)CC1 (centres unmarked) (as salt: oxalate) [Example 283, 2-{(1-methylpiperidin-4-yloxy)[3-(pyridin-2-ylmethoxy)phenyl]methyl}benzothiazole]",158 °C
2,"CN1CCC(OC(c2cccc(OCc3cccnc3)c2)c2nc3ccccc3s2)CC1 (centres unmarked) (as salt: oxalate) [Example 284, 2-{(1-methylpiperidin-4-yloxy)[3-(pyridin-3-ylmethoxy)phenyl]methyl}benzothiazole]",102 °C
3,"CN1CCC(OC(c2cccc(OCC3CCCCC3)c2)c2nc3ccccc3s2)CC1 (centres unmarked) (as salt: oxalate) [Example 285, 2-[(3-Cyclohexylmethoxyphenyl)(1-methylpiperidin-4-yloxy)methyl]benzothiazole]",101 °C
4,"CCN1CCC(OC(c2cccc(OCCN)c2)c2nc3ccccc3s2)CC1 (centres unmarked) (as salt: oxalate) [Example 290, 2-{3-[benzothiazol-2-yl(1-ethyl-piperidin-4-yloxy)methyl]phenoxy}ethylamine]",112 °C
5,"CN1CCC(OC(c2cccc(CCc3cn(C)cn3)c2)c2nc3ccccc3s2)CC1 (centres unmarked) (as salt: oxalate) [Example 306, 2-[{3-[2-(1-methyl-1H-imidazol-4-yl)ethyl]phenyl}(1-methylpiperidin-4-yloxy)methyl]benzothiazole]",80 °C
6,"CN1CCC(OC(c2cccc(OCCCCN3CCOCC3)c2)c2nc3ccccc3s2)CC1 (centres unmarked) (as salt: oxalate) [Example 322, 2-{(1-methylpiperidin-4-yloxy)[3-(4-morpholin-4-yl-butoxy)phenyl]methyl}benzothiazole]",61 °C
7,"CN1CCC(OC(c2cccc(N3CCCC3CO)c2)c2nc3ccccc3s2)CC1 (centres unmarked) (as salt: oxalate) [Example 323, (1-{3-[benzothiazol-2-yl(1-methylpiperidin-4-yloxy)methyl]phenyl}pyrrolidin-2-yl)methanol]",76 °C
8,"CN1CCC(OC(c2cccc(N3CCCC3CO)c2)c2nc3ccccc3s2)CC1 (centres unmarked) (as salt: oxalate) [Example 324, (1-{3-[benzothiazol-2-yl(1-methylpiperidin-4-yloxy)methyl]phenyl}pyrrolidin-2-yl)methanol]",99 °C
9,"CN1CCC(OC(c2cccc(OCCN3CCN(C(=O)OC(C)(C)C)CC3)c2)c2nc3ccccc3s2)CC1 (centres unmarked) (as salt: oxalate) [Example 329, 4-(2-{3-[benzothiazol-2-yl(1-methylpiperidin-4-yloxy)methyl]phenoxy}ethyl)piperazine-1-carboxylic acid tert-butyl ester]",90 °C
10,"CN1CCC(OC(c2cccc(OCCCCN3CCOCC3)c2)c2nc3ccccc3[nH]2)CC1 (centres unmarked) (as salt: oxalate) [Example 332, 2-{(1-methylpiperidin-4-yloxy)[3-(4-morpholin-4-yl-butoxy)phenyl]methyl}-1H-benzimidazole]",85 °C
11,"CN1CCC(OC(c2cccc(OCCCCN3CCCCC3)c2)c2nc3ccccc3[nH]2)CC1 (centres unmarked) (as salt: oxalate) [Example 333, 2-{(1-methylpiperidin-4-yloxy)[3-(4-piperidin-1-yl-butoxy)phenyl]methyl}-1H-benzimidazole]",130 °C
12,"CN1CCC(OC(c2cccc(OCCCn3cncn3)c2)c2nc3ccccc3s2)CC1 (centres unmarked) (as salt: oxalate) [Example 348, 2-{(1-methylpiperidin-4-yloxy)[3-(3-[1,2,4]triazol-1-yl-propoxy)phenyl]methyl}benzothiazole]",60 °C
13,"CN1CCC(OC(c2cccc(OCCCn3nccn3)c2)c2nc3ccccc3s2)CC1 (centres unmarked) (as salt: oxalate) [Example 349, 2-{(1-methylpiperidin-4-yloxy)[3-(3-[1,2,3]triazol-2-yl-propoxy)phenyl]methyl}benzothiazole]",74 °C
14,"CN1CCC(OC(c2cccc(OCCCN3CCOCC3)c2)c2nc3ccccc3s2)CC1 (centres unmarked) (as salt: oxalate) [Example 350, 2-{(1-methylpiperidin-4-yloxy)[3-(3-morpholin-4-yl-propoxy)phenyl]methyl}benzothiazole]",105 °C
15,"CN1CCC(OC(c2cccc(OCCCl)c2)c2nc3ccccc3s2)CC1 (centres unmarked) (as salt: oxalate) [Example 354, 2-[[3-(2-Chloroethoxy)phenyl](1-methylpiperidin-4-yloxy)methyl]benzothiazole]",70 °C
16,"CN1CCC(OC(c2cccc(OCCN3CCN(C(=O)OC(C)(C)C)CC3)c2)c2nc3ccccc3[nH]2)CC1 (centres unmarked) (as salt: oxalate) [Example 369, 4-(2-{3-[(1H-benzimidazol-2-yl)(1-methylpiperidin-4-yloxy)methyl]phenoxy}ethyl)piperazine-1-carboxylic acid tert-butyl ester]",92 °C
17,"CN1CCC(OC(c2cccc(OCCNCC(=O)OC(C)(C)C)c2)c2nc3ccccc3s2)CC1 (centres unmarked) (as salt: oxalate) [Example 370, (2-{3-[benzothiazol-2-yl(1-methylpiperidin-4-yloxy)methyl]phenoxy}ethylamino)acetic acid tert-butyl ester]",136 °C
18,"CN1CCC(OC(c2cccc(OCCCCCNCC(=O)OC(C)(C)C)c2)c2nc3ccccc3s2)CC1 (centres unmarked) (as salt: oxalate) [Example 375, (5-{3-[benzothiazol-2-yl(1-methylpiperidin-4-yloxy)methyl]phenoxy}pentylamino)acetic acid tert-butyl ester]",99 °C
19,"CN1CCC(OC(c2cccc(OCC3CCNCC3)c2)c2nc3ccccc3s2)CC1 (centres unmarked) (as salt: oxalate) [Example 377, 2-{(1-methylpiperidin-4-yloxy)[3-(piperidin-4-ylmethoxy)phenyl]methyl}benzothiazole]",90 °C
20,"CN1CCC(OC(c2cccc(OCC3CCCNC3)c2)c2nc3ccccc3s2)CC1 (centres unmarked) (as salt: oxalate) [Example 378, 2-{(1-methylpiperidin-4-yloxy)[3-(piperidin-3-ylmethoxy)phenyl]methyl}benzothiazole]",55 °C
21,"CN1CCC(OC(c2cccc(OCC3CCCN(C)C3)c2)c2nc3ccccc3s2)CC1 (centres unmarked) (as salt: oxalate) [Example 379, 2-[[3-(1-methylpiperidin-3-ylmethoxy)phenyl](1-methylpiperidin-4-yloxy)methyl]benzothiazole]",76 °C
22,"CN1CCC(OC(c2cccc(OC3CCNC3)c2)c2nc3ccccc3s2)CC1 (centres unmarked) (as salt: oxalate) [Example 382, 2-{(1-methylpiperidin-4-yloxy)[3-(pyrrolidin-3-yloxy)phenyl]methyl}benzothiazole]",50 °C

# Further lines, results first:
row,melting point,SMILES
1,80 °C,"CN1CCC(OC(c2cccc(SCCCCCCO)c2)c2nc3ccccc3s2)CC1 (centres unmarked) (as salt: oxalate) [Example 292, 6-{3-[benzothiazol-2-yl(1-methylpiperidin-4-yloxy)methyl]phenylsulfanyl}hexan-1-ol]"
2,201 °C,"CN1CCC(OC(c2cccc(SCCCCCN)c2)c2nc3ccccc3s2)CC1 (centres unmarked) (as salt: oxalate) [Example 305, 5-{3-[benzothiazol-2-yl(1-methylpiperidin-4-yloxy)methyl]phenylsulfanyl}pentylamine]"
3,120 °C,"CN1CCC(OC(c2cccc(OCCCN)c2)c2nc3ccccc3s2)CC1 (centres unmarked) (as salt: oxalate) [Example 311, 3-{3-[benzothiazol-2-yl(1-methylpiperidin-4-yloxy)methyl]phenoxy}propylamine]"
4,99 °C,"CN1CCC(OC(c2cccc(SCCCN)c2)c2nc3ccccc3s2)CC1 (centres unmarked) (as salt: oxalate) [Example 314, 3-{3-[benzothiazol-2-yl(1-methylpiperidin-4-yloxy)methyl]phenylsulfanyl}propylamine]"
5,135 °C,"CN1CCC(OC(c2cccc(C#CCCCCN)c2)c2nc3ccccc3s2)CC1 (centres unmarked) (as salt: oxalate) [Example 319, 6-{3-[benzothiazol-2-yl(1-methylpiperidin-4-yloxy)methyl]phenyl}hex-5-ynylamine]"
6,115 °C,"CN1CCC(OC(c2cccc(CCCCCCN)c2)c2nc3ccccc3s2)CC1 (centres unmarked) (as salt: oxalate) [Example 325, 6-{3-[benzothiazol-2-yl(1-methylpiperidin-4-yloxy)methyl]phenyl}hexylamine]"
7,146 °C,"CN1CCC(OC(c2cccc(SCCCCN)c2)c2nc3ccccc3[nH]2)CC1 (centres unmarked) (as salt: oxalate) [Example 326, 4-{3-[(1H-benzimidazol-2-yl)(1-methylpiperidin-4-yloxy)methyl]phenylsulfanyl}butylamine]"
8,115 °C,"CN1CCC(OC(c2cccc(OCCCCN)c2)c2nc3ccccc3[nH]2)CC1 (centres unmarked) (as salt: oxalate) [Example 331, 4-{3-[(1H-benzimidazol-2-yl)(1-methylpiperidin-4-yloxy)methyl]phenoxy}butylamine]"
9,160 °C,"CN1CCC(OC(c2cccc(OCCN3CCCCC3)c2)c2nc3ccccc3[nH]2)CC1 (centres unmarked) (as salt: oxalate) [Example 356, 2-{(1-methylpiperidin-4-yloxy)[3-(2-piperidin-1-yl-ethoxy)phenyl]methyl}-1H-benzimidazole]"
10,140 °C,"CN1CCC(OC(c2cccc(OCCCN3CCN(C(=O)OC(C)(C)C)CC3)c2)c2nc3ccccc3[nH]2)CC1 (centres unmarked) (as salt: oxalate) [Example 360, 4-(3-{3-[(1H-benzimidazol-2-yl)(1-methylpiperidin-4-yloxy)methyl]phenoxy}propyl)piperazine-1-carboxylic acid tert-butyl ester]"
11,100 °C,"CN1CCC(OC(c2cccc(CCCCN)c2)c2nc3ccccc3s2)CC1 (centres unmarked) (as salt: oxalate) [Example 366, 4-{3-[benzothiazol-2-yl(1-methylpiperidin-4-yloxy)methyl]phenyl}butylamine]"
12,141 °C,"CN1CCC(OC(c2cccc(OCCCCCN)c2)c2nc3ccccc3s2)CC1 (centres unmarked) (as salt: oxalate) [Example 371, 5-{3-[benzothiazol-2-yl(1-methylpiperidin-4-yloxy)methyl]phenoxy}pentylamine]"
13,140 °C,"CN1CCC(OC(c2cccc(SCCCCCN)c2)c2nc3ccccc3[nH]2)CC1 (centres unmarked) (as salt: oxalate) [Example 381, 5-{3-[(1H-benzimidazol-2-yl)(1-methylpiperidin-4-yloxy)methyl]phenylsulfanyl}pentylamine]"
